US10584114B2, “Inhibitors of RET” (BLUEPRINT MEDICINES CORPORATION, priority 2015, dated 2020)

Experiments:
wild type RET = wild type RET (Homo sapiens (Human), UniProt P07949); assay: RET Wild Type Assay at KM (Caliper electrophoretic mobility shift); assay type: biochemical; settings: 25 μM ATP, 25° C., 120 minutes
RET V804L = RET V804L (Homo sapiens (Human), UniProt P07949, V804L); assay: RET V804L Gatekeeper Mutant Assay at KM (Caliper electrophoretic mobility shift); assay type: biochemical; settings: 10 μM ATP, 25° C., 120 minutes
RET V804L, sequence (P07949 658-1114 V804L): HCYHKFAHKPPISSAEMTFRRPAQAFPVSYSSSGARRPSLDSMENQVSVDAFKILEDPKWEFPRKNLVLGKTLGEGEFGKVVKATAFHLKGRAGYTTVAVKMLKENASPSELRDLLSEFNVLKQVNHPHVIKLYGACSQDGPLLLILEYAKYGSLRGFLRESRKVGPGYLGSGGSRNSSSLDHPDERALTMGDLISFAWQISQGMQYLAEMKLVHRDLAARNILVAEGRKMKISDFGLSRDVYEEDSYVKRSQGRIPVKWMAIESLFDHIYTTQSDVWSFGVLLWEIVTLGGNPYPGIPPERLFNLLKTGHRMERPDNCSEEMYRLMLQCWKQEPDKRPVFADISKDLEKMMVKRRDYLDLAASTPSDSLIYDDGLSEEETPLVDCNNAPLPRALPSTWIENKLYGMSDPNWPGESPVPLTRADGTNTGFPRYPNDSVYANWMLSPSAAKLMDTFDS

wild type RET, sequence (P07949 658-1114): as the sequence (P07949 658-1114 V804L) above, with L147V counted along it

IC50 (wild type RET)	IC50 (RET V804L)	Compound
> 100 nM	> 100 nM	Cc1cc(Nc2cc(C)[nH]n2)nc([C@H]2CC[C@@H](C(=O)NCc3ccc(-n4cccn4)nc3)CC2)n1 [Compound 100]
< 10 nM	< 10 nM	Cc1cc(Nc2cc(C)[nH]n2)nc([C@H]2CC[C@H](C(=O)NCc3ccc(-n4cccn4)nc3)CC2)n1 [Compound 101]
> 100 nM	> 100 nM	Cc1cc(Nc2cc(C)[nH]n2)nc([C@H]2CC[C@@H](C(=O)N[C@@H](C)c3ccc(-n4cccn4)nc3)CC2)n1 [Compound 102]
< 10 nM	< 10 nM	Cc1cc(Nc2cc(C)[nH]n2)nc([C@H]2CC[C@H](C(=O)N[C@@H](C)c3ccc(-n4cccn4)nc3)CC2)n1 [Compound 103]
> 100 nM	> 100 nM	Cc1cc(Nc2cc(C)[nH]n2)nc([C@@H]2CC[C@@H](C(=O)NCc3ccc(-n4cccn4)nc3)[C@@H](C)C2)n1 [Compound 104]
< 10 nM	10 to 100 nM	Cc1cc(Nc2cc(C)[nH]n2)nc([C@H]2CC[C@H](C(=O)NCc3ccc(-n4nc(C)cc4C)nc3)CC2)n1 [Compound 106]
< 10 nM	< 10 nM	Cc1cc(Nc2cc(C)[nH]n2)nc([C@@]2(O)CC[C@H](C(=O)NCc3ccc(-n4cccn4)nc3)[C@H](C)C2)c1 [Compound 107]
< 10 nM	< 10 nM	Cc1cc(Nc2cc(C)[nH]n2)nc([C@H]2CC[C@H](C(=O)NCc3ccc(-n4cc(Cl)cn4)nc3)CC2)n1 [Compound 113]
< 10 nM	< 10 nM	Cc1cc(Nc2cc(C)[nH]n2)nc([C@]2(O)CC[C@@H](C(=O)NCc3ccc(-n4cccn4)nc3)C(C)(C)C2)c1 [Compound 114]
> 100 nM	10 to 100 nM	Cc1cc(Nc2cc(C)[nH]n2)nc([C@@H]2CC[C@@H](C(=O)N[C@@H](C)c3ccc(-n4cc(F)cn4)nc3)[C@@H](C)C2)n1 [Compound 116]
> 100 nM	> 100 nM	Cc1cc(Nc2cc(C)[nH]n2)nc([C@]2(O)CC[C@H](C(=O)N[C@@H](C)c3ccc(-n4cc(F)cn4)nc3)CC2)c1 [Compound 119]
< 10 nM	< 10 nM	Cc1cc(Nc2cc(C)[nH]n2)nc([C@]2(O)CC[C@@H](C(=O)N[C@@H](C)c3ccc(-n4cc(F)cn4)nc3)CC2)c1 [Compound 120, (1s,4R)—N—((S)-1-(6-(4-fluoro-1H-pyrazol-1-yl)pyridin-3-yl)ethyl)-4-hydroxy-4-(4-methyl-6-(5-methyl-1H-pyrazol-3-ylamino)pyridin-2-yl)cyclohexanecarboxamide]
> 100 nM	10 to 100 nM	Cc1cc(Nc2cc(C)[nH]n2)nc([C@@H]2CC[C@@H](C(=O)N[C@@H](C)c3ccc(-n4cc(F)cn4)nc3)C(C)(C)C2)n1 [Compound 124]
< 10 nM	< 10 nM	CO[C@]1(C(=O)N[C@@H](C)c2cnc(-n3cc(F)cn3)cn2)CC[C@H](c2nc(C)cc(Nc3cc(C)[nH]n3)n2)CC1 [Compound 131]
< 10 nM	< 10 nM	CCO[C@]1(C(=O)N[C@@H](C)c2ccc(-n3cc(F)cn3)nc2)CC[C@H](c2nc(C)cc(Nc3cc(C)[nH]n3)n2)CC1 [Compound 136]
> 100 nM	> 100 nM	CO[C@]1(C(=O)N[C@@H](C)c2ccc(-n3cc(F)cn3)nc2)CC[C@](O)(c2cc(C)cc(Nc3cc(C)[nH]n3)n2)CC1 [Compound 137]
< 10 nM	< 10 nM	CO[C@]1(C(=O)N[C@@H](C)c2ccc(-n3cc(F)cn3)nc2)CC[C@@](O)(c2cc(C)cc(Nc3cc(C)[nH]n3)n2)CC1 [Compound 138]
< 10 nM	< 10 nM	Cc1cc(Nc2cc(C)[nH]n2)nc(C2=CCC(C(=O)N[C@@H](C)c3ccc(-n4cc(F)cn4)nc3)CC2)n1 (stereo partly shown) [Compound 144]
< 10 nM	< 10 nM	Cc1cc(Nc2cc(C)[nH]n2)nc([C@]2(O)CC[C@@H](C(=O)N[C@@H](C)c3ccc(-n4cc(F)cn4)nc3)OC2)c1 [Compound 146]
< 10 nM	< 10 nM	CO[C@]1(C(=O)NCc2cnc(-n3cc(F)cn3)cn2)CC[C@H](c2nc(C)cc(Nc3cc(C)[nH]n3)n2)CC1 [Compound 150]
